Results from PMC12505902, “Inhibitors of trehalose-6-phosphate synthase activity in fungal pathogens compromise thermal tolerance pathways” (mBio, 2025).

Molecular target: 6xHis-CnTps1 (Cryptococcus neoformans var. grubii, UniProt J9VJZ1)
Experiment: Spectrophotometric-coupled Tps1 enzyme activity assay
Type: biochemical, C. neoformans
Conditions: 1 mM 4456dh
Experimental: Fig 2 4456dh binds Tps1 and inhibits Tps1 activity. (A) Structure of 4456dh. (B and C) Glo-melt thermal shift assays reveal 4456dh destabilizes 6xHis-CaTps1 (B) and 6xHis-CnTps1 (C). The first derivative of the raw data was used to determine the melting temperature of 1 µM 6xHis-CaTps1 (B) and 1 µM 6xHis-CnTps1 (C) treated without (black) or with 2 mM 4456dh (red). […] The resulting dose-response curves were fitted to a one-site binding model to extract Kd values; the SD was calculated using the Kd values from each independent experiment (n = 3). (F) Tps1 enzyme activity assay with 5 µM 6xHis-CaTps1 (F) and 6xHis-CnTps1 (G) ±1 mM 4456dh. Error bars represent SE. […]
The ability of 4456dh to inhibit the activity of CaTps1 was tested using a spectrophotometric-coupled Tps1 enzyme assay, in which recombinant 6xHis-CaTps1 was incubated with 1 mM 4456dh at 4°C for 16 hours. […] Similarly, the effect of 1 mM 4456dh on 6xHis-CnTps1 activity was determined. […]
82 determined by SDS-PAGE analysis, were pooled and concentrated to 1 mg/mL for downstream […]
93 The data were acquired with MO.Control 1.5.3 (NanoTemper Technologies GmbH). Recorded
94 data were analyzed with MO.Affinity Analysis 2.2.7 (NanoTemper Technologies GmbH). […]
100 2X Glo-melt dye. Thermal denaturation was measured using an RT-PCR thermocycler (BioRad) […]
102 determined by identifying the inflection point of the derivative data. […]

Sequence of 6xHis-CnTps1 (J9VJZ1 entry or part of it): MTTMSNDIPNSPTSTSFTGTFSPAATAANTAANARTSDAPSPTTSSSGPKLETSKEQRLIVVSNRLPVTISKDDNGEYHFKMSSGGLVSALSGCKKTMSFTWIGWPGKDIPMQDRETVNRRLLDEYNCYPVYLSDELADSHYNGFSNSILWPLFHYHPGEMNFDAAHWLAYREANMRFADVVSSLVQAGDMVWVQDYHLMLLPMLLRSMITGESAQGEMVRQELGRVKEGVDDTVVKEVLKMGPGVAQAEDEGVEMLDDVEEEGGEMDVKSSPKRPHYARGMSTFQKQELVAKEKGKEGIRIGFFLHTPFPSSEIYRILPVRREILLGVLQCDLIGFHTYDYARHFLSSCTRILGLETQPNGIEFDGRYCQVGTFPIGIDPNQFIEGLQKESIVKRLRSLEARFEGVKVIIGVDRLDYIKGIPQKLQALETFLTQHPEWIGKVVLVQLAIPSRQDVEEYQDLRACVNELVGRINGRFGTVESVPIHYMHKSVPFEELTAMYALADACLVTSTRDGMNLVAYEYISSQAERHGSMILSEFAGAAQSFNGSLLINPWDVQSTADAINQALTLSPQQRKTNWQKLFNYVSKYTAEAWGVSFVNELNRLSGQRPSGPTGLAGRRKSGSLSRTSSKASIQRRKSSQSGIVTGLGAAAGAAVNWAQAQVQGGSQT

Compound: Cn1cc(-c2csc(NC(=O)Cc3ccccn3)n2)cn1 [Compound 4456dh]
- inhibition at 1000 µM: ~30%
